According to patent US20060035940A1, “(S)-Amlodipine malate” (Sepracor Inc., priority 2004, published 2006):
Where a name gives a salt, the structure may show the parent alone. Read-outs that look alike come from different tables or passages of the source.

Tests used:
[1] = Adhesion studies (tablet punch surfaces, blends with Avicel PH 101); type: physicochemical
Procedure: Avicel PH 101 and each (S)-amlodipine salt were pre-screened through a 25-mesh sieve to delump the powders prior to blending. […] Approximately 500 mg was weighed into the ½-inch tablet die, a tablet punch was added and 0.2 metric tons of pressure was applied using a Carver press for 2-3 seconds. The tablet was then removed, and the surfaces of the tablet punches (concave, SRC) were washed with mobile phase (1 mL). The wash was then assayed by HPLC. Three measurements were made for each blend.

[2] = Hygroscopicity and desolvation studies of crystal forms (XRPD); type: physicochemical; conditions: 31, 75, 84 and 95% relative humidity, approximately one week
Procedure: Hygroscopicity studies were performed by placing portions of a select form in a 11, 32, 45, 66, 75, 84% or 95% relative humidity (RH) chamber for approximately one to three weeks. Desolvation studies were carried out by heating each form in an 80° C. oven for approximately one week. Interconversion experiments were carried out by making slurries containing two forms in a saturated solvent. The slurries were agitated for approximately seven days at ambient temperature. The insoluble solids were recovered by filtration and analyzed using XRPD.

Solid state stability = type: physicochemical; conditions: 60° C./75% RH
Procedure: Individual samples were prepared and stored at 25° C./60% RH and 40° C./75% RH. Samples stored at 60° C./75% RH were packaged in uncapped glass vials. All samples were analyzed for assay and impurity by HPLC.

[3] = type: physicochemical; conditions: for pH of saturated solution: DI H2O, ambient temperature
Excerpt: The solution was sampled periodically, filtered using a 0.2 μm PTFE syringe filter and assayed by HPLC.
The sample was filtered through a 0.2 μm filter and assayed by HPLC.

[4] = TGA, water content and moisture sorption profiles; type: physicochemical
Procedure: Moisture Sorption Isotherms: Moisture sorption isotherms were generated using VTI SGA-100 symmetric vapor sorption analyzer. Samples were not pre-dried. Equilibrium criteria were the lesser of 0.01 wt % change in 5 minutes or 180 minutes at each RH step. Temperature was fixed at 25° C. and the relative humidity steps (25% to 95% to 25%) were in 5% increments. In FIG. 27, adsorption data is shown as a solid line with desorption data connected by a dashed line. Water Content: Water content was determined by coulometric titration using an EM Science Aquastar® C300 Karl Fischer titrator. TGA: Samples were analyzed using Perkin Elmer TGA 7 thermal gravimetric analyzer at a heating rate of 10° C./min.

[5] = Moisture balance (VTI SGA-100 sorption isotherm); type: physicochemical; conditions: equilibrated at 95% RH (sorption range 5% to 95% RH)
Procedure: Moisture-sorption data were collected on a VTI SGA-100 moisture balance system. […] The sample was not dried prior to analysis. Equilibrium criteria used for analysis were less than 0.0100 weight-percent change in 5 minutes with a maximum equilibration time of 3 hours if the weight criterion was not met. The data were not corrected for the initial moisture content of the sample.

[6] = 5% (S)-Amlodipine salt in Avicel
[7] = 25% (S)-Amlodipine salt in Avicel

For `CCOC(=O)C1=C(COCCN)NC(C)=C(C(=O)OC)[C@@H]1c1ccccc1Cl.O=C(O)C(O)C(O)C(=O)O` [(S)-amlodipine D-tartrate], the Adhesion [1, 6] was 6.0E−07 g (S)-amlodipine/cm^2 and the Adhesion [1, 7] was 2.8E−06 g (S)-amlodipine/cm^2.
In the case of (S)-amlodipine L-malate, the Adhesion [1, 6] is reported as 4.9E−07 g (S)-amlodipine/cm^2, the Adhesion [1, 7] is reported as 2.6E−06 g (S)-amlodipine/cm^2 and the “adhesion to solid dosage form manufacturing equipment compared to other salts” value ([1]; blended at typical levels with Avicel) is reported as “decreased adhesion”. For the same molecule, the “crystal form after hygroscopicity study” value [2] was “remained unchanged”, the “time for which solid was fairly stable” value (Solid state stability) was > 2 months and the “pH of saturated solution” value ([3]; initial salt screen) was 4.0. The “pH of saturated solution” value ([3]; more recent sample) was 3.56, the “Free Base Concentration (solubility)” value ([3]; pH 3.56) was 6000 µg/mL and the “Malate Concentration (solubility)” value ([3]; pH 3.56) was 8000 µg/mL. For the same molecule, the “Free Base Concentration (solubility)” value ([3]; pH 4) was 10100 µg/mL, the “Malate Concentration (solubility)” value ([3]; pH 4) was 13400 µg/mL and the “Moisture Desorption” value ([4]; at 25% RH, 25° C.) was 0.06 % wt remaining. The “Moisture Adsorption” value ([4]; at 95% RH, 25° C.) was 0.24 % wt gain, the KF water content ([4]; coulometric Karl Fischer) was 0.13 % H2O and the TGA ([4]; heating rate 10° C./min) was 0.14 % wt loss. The hygroscopicity ([4]; moisture sorption, TGA and Karl Fischer data) was “not hygroscopic” and the “increase in weight (moisture balance)” value [5] was 0.5%.
With `CCOC(=O)C1=C(COCCN)NC(C)=C(C(=O)OC)[C@@H]1c1ccccc1Cl` [(S)-amlodipine maleate] the Adhesion [1, 6] was 5.8E−07 g (S)-amlodipine/cm^2 and the Adhesion [1, 7] was 3.9E−06 g (S)-amlodipine/cm^2.
With `O=C(O)[C@H](O)[C@@H](O)C(=O)O` [(L)-Tartrate] the Adhesion [1, 6] was 9.3E−07 g (S)-amlodipine/cm^2 and the Adhesion [1, 7] was 4.9E−06 g (S)-amlodipine/cm^2.
For `CCOC(=O)C1=C(COCCN)NC(C)=C(C(=O)OC)C1c1ccccc1Cl.O=C(O)CC(O)C(=O)O` [form D′, (S)-Amlodipine-D-malate], the “increase in weight (moisture balance)” value [5] was 0.3%.
